Key:
HCC202 = test: Growth inhibition (CTG assay), HCC202; type: cell-based; details: Homo sapiens, PIK3CA p.E545K, average GI50, CTG assay
Procedure: (§1) We used a panel of breast cancer cell lines that represent the heterogeneity seen in breast tumors for drug screening. Fixed numbers of cells were plated in 96 well plates. Using a Biotek liquid handling robot, cells were treated with nine two-fold dilutions of an AKT inhibitor (GSK690693), a second drug (lapatinib), or a combination of the two. Response was measured using CTG assay as % Growth Inhibition. 50% Growth Inhibition (GI50) was calculated. Synergistic interactions between drugs was calculated by standard median-effect method using % inhibition (inhibitory concentration) readings and reported as a combination index using the Synergy module in R.

AU565 = test: Growth inhibition (CTG assay), AU565; type: cell-based; details: Homo sapiens, PIK3CA wt, PTEN wt, average GI50, CTG assay
Procedure: as §1

MDAMB361 = test: Growth inhibition (CTG assay), MDAMB361; type: cell-based; details: Homo sapiens, MDA-MB-361, PIK3CA wt/p.E545K, average GI50, CTG assay
Procedure: as §1

UACC812 = test: Growth inhibition (CTG assay), UACC812; type: cell-based; details: Homo sapiens, UACC-812, PIK3CA wt, PTEN wt, average GI50, CTG assay
Procedure: as §1

MDAMB175 = test: Growth inhibition (CTG assay), MDAMB175; type: cell-based; details: Homo sapiens, PIK3CA wt, PTEN wt, not HER2 amplified, average GI50, CTG assay
Procedure: as §1

BT474 = test: Growth inhibition (CTG assay), BT474; type: cell-based; details: Homo sapiens, BT-474, PIK3CA wt/p.K111N, average GI50, CTG assay
Procedure: as §1, with “50% Growth Inhibition (GI50) was calculated.” left out

SKBR3 = test: Growth inhibition (CTG assay), SKBR3; type: cell-based; details: Homo sapiens, SK-BR-3, PIK3CA wt, PTEN wt, average GI50, CTG assay
Procedure: as §1

SUM225 = test: Growth inhibition (CTG assay), SUM225; type: cell-based; details: Homo sapiens, PIK3CA wt, average GI50, CTG assay
Procedure: as §1

HCC1569 = test: Growth inhibition (CTG assay), HCC1569; type: cell-based; details: Homo sapiens, PIK3CA wt, PTEN p.K267fs*9, average GI50, CTG assay
Procedure: as §1

HCC1954 = test: Growth inhibition (CTG assay), HCC1954; type: cell-based; details: Homo sapiens, PIK3CA p.H1047R, average GI50, CTG assay
Procedure: as §1

SUM190PT = test: Growth inhibition (CTG assay), SUM190PT; type: cell-based; details: Homo sapiens, PIK3CA p.H1047R, average GI50, CTG assay
Procedure: as §1

MDAMB453 = test: Growth inhibition (CTG assay), MDAMB453; type: cell-based; details: Homo sapiens, MDA-MB-453, PIK3CA p.H1047R, PTEN wt/p.E307K, average GI50, CTG assay
Procedure: as §1

Akt = details: ATP-competitive; three Akt isoforms; cited from earlier work

In the case of `CCn1c(-c2nonc2N)nc2c(C#CC(C)(C)O)ncc(OC[C@H]3CCCNC3)c21` [AKT], the GI50 (HCC202) is reported as 15 nM, the GI50 (AU565) is reported as 109 nM and the GI50 (MDAMB361) is reported as 63 nM. For the same molecule, the GI50 (UACC812) was 41 nM, the GI50 (MDAMB175) was 27 nM and the GI50 (BT474) was 89 nM. For the same molecule, the GI50 (SKBR3) was 54 nM, the GI50 (SUM225) was 293 nM and the GI50 (HCC1569) was 122 nM. It also gave a GI50 (HCC1954) of 119 nM, a GI50 (SUM190PT) of 229 nM and a GI50 (MDAMB453) of 109 nM. For the same molecule, the “pan-Akt kinase inhibition potency” value (Akt) was “low-nanomolar”.

With `CS(=O)(=O)CCNCc1ccc(-c2ccc3ncnc(Nc4ccc(OCc5cccc(F)c5)c(Cl)c4)c3c2)o1` [Lap, lapatinib] the GI50 (HCC202) was 68 nM, the GI50 (AU565) was 87 nM and the GI50 (MDAMB361) was 106 nM. It also gave a GI50 (UACC812) of 106 nM, a GI50 (MDAMB175) of 114 nM and a GI50 (BT474) of 116 nM. It also gave a GI50 (SKBR3) of 163 nM, a GI50 (SUM225) of 245 nM and a GI50 (HCC1569) of 420 nM. The GI50 (HCC1954) was 673 nM, the GI50 (SUM190PT) was 806 nM and the GI50 (MDAMB453) was 922 nM.

Reference: patent US20130331405A1, “PIK3CA Mutation Status and SASH1 Expression Predicts Synergy Between Lapatinib and an AKT Inhibitor in HER2 Positive Breast Cancer” (THE REGENTS OF THE UNIVERSITY OF CALIFORNIA, priority 2012, published 2013)
